Like-named read-outs stand apart in the source and are kept apart here.
Biological target: human TrkA (Homo sapiens (Human), UniProt P04629)
Assay: Human TrkA inhibition assay (Test Example 2)
Assay type: biochemical
Outline: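 Recombinant TrkA (1 nmol/L) was preincubated 15 min at room temperature with compound in HEPES/MgCl2/DTT buffer, then reacted with FL-peptide 27 (1.5 μmol/L) and ATP (500 μmol/L) for 120 min at 37 °C. After EDTA stop, substrate phosphorylation was read by microfluidic mobility shift. IC50 came from logistic regression over 3-fold dilution series.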

[1] = human TrkA 1 nmol/L, ATP 500 μmol/L, 120 min at 37° C., read-out: IC50 values (TrkA phosphorylation inhibition)
[2] = Table 157, human TrkA inhibition, read-out: IC50
[3] = Table 153, human TrkA inhibition, read-out: IC50
[4] = Table 155, human TrkA inhibition, read-out: IC50
[5] = Table 156, human TrkA inhibition, read-out: IC50
[6] = Table 154, human TrkA inhibition, read-out: IC50
[7] = Table 152, human TrkA inhibition, read-out: IC50_nM

Sequence of human TrkA (P04629 440-796): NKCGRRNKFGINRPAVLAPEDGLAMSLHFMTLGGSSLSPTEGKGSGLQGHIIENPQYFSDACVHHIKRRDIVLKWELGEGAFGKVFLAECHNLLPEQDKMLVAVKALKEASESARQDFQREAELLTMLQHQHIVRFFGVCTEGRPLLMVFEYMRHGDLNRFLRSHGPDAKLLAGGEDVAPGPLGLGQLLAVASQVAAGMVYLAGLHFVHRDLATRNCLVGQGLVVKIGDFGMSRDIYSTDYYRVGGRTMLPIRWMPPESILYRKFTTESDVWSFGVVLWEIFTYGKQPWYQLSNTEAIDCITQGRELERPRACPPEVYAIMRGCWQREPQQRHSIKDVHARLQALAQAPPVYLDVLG

COCCN1C[C@@H](NC(=O)Nc2c(C)c(-c3cnc(COC)nc3)nn2-c2ccccc2)[C@H](c2ccc(F)c(F)c2)O1 [Compound I-508]
IC50 [1]: 1.1 nM

CCN1C[C@@H](NC(=O)Nc2c(C)c(OCC3CN(C)C3)nn2-c2ccccc2)[C@H](c2ccc(F)c(F)c2)O1 (racemic) [Compound I-658]
IC50 [2]: < 100 nM

COCC[C@@H]1C[C@@H](NC(=O)Nc2c(C)c(C3=CCN(C(=O)OC(C)(C)C)CC3)nn2-c2ccccc2)[C@H](c2ccc(F)c(F)c2)O1 (racemic) [Compound I-54]
IC50 [3]: < 100 nM

COCCN1C[C@@H](NC(=O)Nc2c(C)c(-c3cnc(N4CC[C@@H](N(C)C)C4)nc3)nn2-c2ccccc2)[C@H](c2ccnc(F)c2)O1 [Compound I-587]
IC50 [2]: < 100 nM

COCCN1C[C@@H](NC(=O)Nc2c(C)c(-c3cnn(C)c3)nn2-c2ccccc2)[C@H](c2cccc(F)c2)O1 (racemic) [Compound I-139]
IC50 [3]: < 100 nM

COCCN1C[C@@H](NC(=O)Nc2c(C(F)F)c(C)nn2-c2ccccc2)[C@H](c2ccnc(F)c2)O1 (racemic) [Compound I-673]
IC50 [2]: 100 to 1000 nM

COCCN1C[C@@H](NC(=O)Nc2c(C)c(OCc3cc(OC)ccn3)nn2-c2ccccc2)[C@H](c2ccnc(F)c2)O1 (racemic) [Compound I-501]
IC50 [4]: < 100 nM

COCCN1C[C@@H](NC(=O)Nc2c(C)c(OCC(C)(C)O)nn2-c2ccccc2)[C@H](c2ccc(F)c(F)c2)O1 (racemic) [Compound I-61]
IC50 [3]: < 100 nM

CCN1C[C@@H](NC(=O)Nc2c(C)c(OCC(=O)NCC(C)(C)O)nn2-c2ccccc2)[C@H](c2ccc(F)c(F)c2)O1 (racemic) [Compound I-652]
IC50 [2]: < 100 nM

COCCN1C[C@@H](NC(=O)Nc2c(C)c(-c3ccc4c(c3)NC(=O)CO4)nn2-c2ccccc2)[C@H](c2ccnc(F)c2)O1 (racemic) [Compound I-364]
IC50 [4]: < 100 nM

COCCN1C[C@@H](NC(=O)Nc2c(C)c(-c3cnn(C)c3)nn2-c2ccccc2)[C@H](c2ccc(F)cc2)O1 (racemic) [Compound I-116]
IC50 [3]: < 100 nM

Cc1c(OCC2CCN(C)CC2)nn(-c2ccccc2)c1NC(=O)N[C@@H]1CN(CCF)O[C@H]1c1ccc(F)c(F)c1 (racemic) [Compound I-567]
IC50 [5]: < 100 nM

COCCN1C[C@@H](NC(=O)Nc2c(C)c(-c3ccnc(C(=O)OCc4ccccc4)c3)nn2-c2ccccc2)[C@H](c2ccc(F)c(F)c2)O1 (racemic) [Compound I-76]
IC50 [3]: < 100 nM

COCCN1C[C@@H](NC(=O)Nc2c(C)c(OCC3CNCCO3)nn2-c2ccccc2)[C@H](c2ccc(F)c(F)c2)O1 (single isomer, unassigned) [Compound I-575]
IC50 [5]: < 100 nM

Cc1c(-c2cnn(C)c2)nn(-c2ccccc2)c1NC(=O)N[C@@H]1CN(CC(F)(F)F)O[C@H]1c1ccc(F)c(F)c1 (racemic) [Compound I-304]
IC50 [6]: 100 to 1000 nM

CCN1C[C@@H](NC(=O)Nc2c(C)c(-c3cnc(OC)c(C(=O)NC)c3)nn2-c2ccccc2)[C@H](c2ccc(F)c(F)c2)O1 (racemic) [Compound I-406]
IC50 [1]: 2.2 nM

COCCN1C[C@@H](NC(=O)Nc2c(C)c(-c3cnc4c(c3)CN(C(C)=O)CC4)nn2-c2ccccc2)[C@H](c2ccnc(F)c2)O1 (racemic) [Compound I-439]
IC50 [4]: < 100 nM

COCCN1C[C@@H](NC(=O)Nc2c(C)c(C3=CC(=O)N(C)C(C)(C)C3)nn2-c2ccccc2)[C@H](c2ccnc(F)c2)O1 (racemic) [Compound I-397]
IC50 [4]: < 100 nM

CCN1C[C@@H](NC(=O)Nc2c(C)c(OCC3CN(C)CCO3)nn2-c2ccccc2)[C@H](c2ccc(F)c(F)c2)O1 (stereo partly drawn) [Compound I-548]
IC50 [5]: < 100 nM

CCN1C[C@@H](NC(=O)Nc2c(C)c(OCCCC(N)=O)nn2-c2ccccc2)[C@H](c2ccc(F)c(F)c2)O1 (racemic) [Compound I-663]
IC50 [2]: < 100 nM

COCCN1C[C@@H](NC(=O)Nc2c(C)c(-c3ccc4nc(C)nn4c3)nn2-c2ccccc2)[C@H](c2ccnc(F)c2)O1 [Compound I-359]
IC50 [4]: < 100 nM

COCCN1C[C@@H](NC(=O)Nc2c(C)c(OCC3CN(C(C)=O)CCO3)nn2-c2ccccc2)[C@H](c2ccc(F)c(F)c2)O1 (single isomer, unassigned) [Compound I-578]
IC50 [5]: < 100 nM

Cc1c(-c2cnn(C)c2)nn(-c2ccccc2)c1NC(=O)N[C@@H]1CN(Cc2csnn2)O[C@H]1c1ccccc1 (racemic) [Compound I-2]
IC50 [7]: 100 to 1000 nM

COCCN1C[C@@H](NC(=O)Nc2c(C)c(-c3cnc4c(c3)nc(C(N)=O)n4C)nn2-c2ccccc2)[C@H](c2ccnc(F)c2)O1 (racemic) [Compound I-219]
IC50 [6]: < 100 nM

COCCC1C[C@@H](NC(=O)Nc2c(C)c(-c3ccc4c(cnn4C)c3)nn2-c2ccccc2)[C@H](c2ccccc2)O1 (stereo partly drawn) [Compound I-11]
IC50 [7]: < 100 nM

COCCN1C[C@@H](NC(=O)Nc2c(C)c(-c3ccc(C)nc3F)nn2-c2ccccc2)[C@H](c2ccnc(F)c2)O1 (racemic) [Compound I-350]
IC50 [4]: < 100 nM

COCCN1C[C@@H](NC(=O)Nc2c(C)c(-c3ccc(CO)nc3)nn2-c2ccccc2)[C@H](c2ccc(F)c(F)c2)O1 [Compound I-533]
IC50 [5]: < 100 nM

COCCN1C[C@@H](NC(=O)Nc2c(C)c(C3=CCN(C(C)=O)CC3)nn2-c2ccccc2)[C@H](c2ccnc(F)c2)O1 (racemic) [Compound I-42]
IC50 [7]: < 100 nM

CCN1C[C@@H](NC(=O)Nc2c(C)c(-c3cnc(N4CC(OC)C4)nc3)nn2-c2ccccc2)[C@H](c2ccc(F)c(F)c2)O1 (racemic) [Compound I-628]
IC50 [2]: < 100 nM

CNC(=O)c1cc(-c2nn(-c3ccccc3)c(NC(=O)N[C@@H]3C[C@@H](CCOC)O[C@H]3c3ccnc(F)c3)c2C)cn(C)c1=O [Compound I-271]
IC50 [6]: < 100 nM

COCCN1C[C@@H](NC(=O)Nc2c(C)c(-c3cc(CO)c(=O)n(C)c3)nn2-c2ccccc2)[C@H](c2cnc(F)c(F)c2)O1 (racemic) [Compound I-81]
IC50 [3]: < 100 nM

COCC[C@@H]1C[C@@H](NC(=O)Nc2c(C)c(-c3cnc(C)nc3)nn2-c2ccccc2)[C@H](c2ccnc(F)c2)O1 (racemic) [Compound I-96]
IC50 [1]: 15 nM

COCCN1C[C@@H](NC(=O)Nc2c(C)c(-c3ccc(N4C[C@H]5COC[C@@H](C4)N5C)nc3)nn2-c2ccccc2)[C@H](c2ccnc(F)c2)O1 (racemic) [Compound I-396]
IC50 [4]: < 100 nM

COCCN1C[C@@H](NC(=O)Nc2c(C)c(-c3cc(C(N)=O)c(=O)n(C)n3)nn2-c2ccccc2)[C@H](c2ccnc(F)c2)O1 (racemic) [Compound I-301]
IC50 [6]: < 100 nM

COCCN1C[C@@H](NC(=O)Nc2c(C)c(-c3cnc(OC)c(C(=O)NC4CCOCC4)c3)nn2-c2ccc(F)cc2)[C@H](c2ccc(F)c(F)c2)O1 (racemic) [Compound I-184]
IC50 [6]: < 100 nM

CNC(=O)c1nc2cc(-c3nn(-c4ccccc4)c(NC(=O)N[C@@H]4CN(CCOC)O[C@H]4c4ccnc(F)c4)c3C)cnc2n1C (racemic) [Compound I-224]
IC50 [6]: < 100 nM

COCCN1C[C@@H](NC(=O)Nc2c(C)c(-c3cnc4c(c3)NC(=O)CN4)nn2-c2ccccc2)[C@H](c2ccnc(F)c2)O1 (racemic) [Compound I-357]
IC50 [4]: < 100 nM

COCCN1C[C@@H](NC(=O)Nc2c(C)c(-c3cnc(N4C[C@@H]5C[C@H]4CO5)nc3)nn2-c2ccccc2)[C@H](c2ccnc(F)c2)O1 [Compound I-591]
IC50 [2]: < 100 nM

COCCN1C[C@@H](NC(=O)Nc2c(C)c(-c3cnc(C)nc3)nn2-c2ccccc2)[C@H](c2cc(F)nc(F)c2)O1 [Compound I-361]
IC50 [4]: < 100 nM
